The molecules below were run against human PDHK2 (hPDHK2) (Homo sapiens (Human), UniProt Q15119) (assay: Inhibitory action of PDHK2 activity (PDH/hPDHK2 complex, residual PDH activity by NADH absorbance at 340 nm)). Settings: FLAG-tagged recombinant hPDHK2 with porcine heart PDH complex; PDHK reaction 45 min at room temperature.
Assay type: biochemical
Method: In the case of human PDHK2 (hPDHK2, NCBI Reference Database Accession number NM_002611.4), modified hPDHK2 cDNA wherein FLAG-Tag sequence was added to the N terminal of hPDHK2 cDNA clone (pReceiver-M01/PDK2-GeneCopoeia) as the base was prepared by polymerase chain reaction (PCR) and ligated to the NdeI/EcoRI site of pET-17b vector (Merck KGaA, Catalog Number 69663-3). The recombinant construct was transformed into Escherichia coli DH5a. The recombinant clones were identified, and plasmid DNA was isolated and subjected to the DNA sequence analysis. One clone which had the expected nucleic acid sequence was selected for expression work.
For expression of hPDHK2 activity, Escherichia coli strain BL21(DE3) cells (Merck KGaA, Catalog Number 69450-4) were transformed with the pET17b vector containing modified hPDHK2 cDNA. The Escherichia coli were grown to an optical density 0.6 ([…]) at 30° C. Protein expression was induced by the addition of 500 μmol/L isopropyl-β-thiogalactopyranoside. The Escherichia coli were cultured at 20° C. for 17 to for 18 hr and harvested by centrifugation. The harvested Escherichia coli was resuspended in a suspension buffer (20 mmol/L HEPES-NaOH, 500 mmol/L sodium chloride, 1% ethylene glycol, 0.1% Pluronic (registered trademark) F-68 (pH 8.0), cOmplete, EDTA-free (Roche) (pH 8.0)), and disrupted by a microfluidizer M-110H (MIZUHO INDUSTRIAL CO., LTD.). The precipitate was removed by centrifugation and the supernatant was added to DDDDK-tagged Protein PURIFICATION GEL (MEDICAL & BIOLOGICAL LABORATORIES CO., LTD., Code No. 3329). DDDDK-tagged Protein PURIFICATION GEL was washed with a washing buffer (20 mmol/L HEPES-NaOH, 500 mmol/L sodium chloride, 1% ethylene glycol, 0.1% Pluronic F-68 (pH 8.0)) and the bound protein was eluted with elution buffer 1 (20 mmol/L HEPES-NaOH, 100 μg/mL peptide (amino acid sequence DYKDDDDK) (SEQ ID NO: 1), 500 mmol/L sodium chloride, 1% ethylene glycol, 0.1% Pluronic F-68 (pH 8.0)). The eluted fractions containing FLAG-Tagged protein were pooled, concentrated by an ultrafiltration method, added to a gel filtration column (HiLoad 26/60 Superdex 200 (GE Healthcare Life Sciences, Code No. 17-1070-01)), and eluted with elution buffer 2 (20 mmol/L HEPES-NaOH, 150 mmol/L sodium chloride, 0.5 mmol/L ethylenediaminetetraacetic acid (EDTA), 1% ethylene glycol, 0.1% Pluronic F-68 (pH 8.0)). The eluted fractions were pooled and preserved at −80° C.
PDH (porcine heart PDH complex, Sigma P7032) and 0.5 μg/mL hPDHK2 were mixed in an assay buffer (50 mmol/L 3-morpholinopropanesulfonic acid (pH 7.0), 20 mmol/L dipotassium hydrogen phosphate, 60 mmol/L potassium chloride, 2 mmol/L magnesium chloride, 0.4 mmol/L EDTA, 0.2% poloxamer, 2 mmol/L dithiothreitol) so that the final concentration of PDH was 0.025 U/mL, and the mixture was incubated at 4° C. overnight to obtain a PDH/hPDHK2 complex solution.
PDH was mixed with the assay buffer so that the final concentration was 0.025 U/mL, and the mixture was incubated at 4° C. overnight to prepare a PDH solution.
The test compounds were diluted with DMSO. […] DMSO (1.5 μL) was added to control wells instead of test compound. In addition, DMSO (1.5 μL) was added to blank wells instead of the test compound, and PDH solution was added instead of the PDH/hPDHK2 complex solution. To measure an inhibitory action of the test compound on the PDHK activity inherent in the PDH solution, a test compound was added and the PDH solution instead of the PDH/hPDHK2 complex solution was added to a blank+test compound well.
Then, 10 μL of substrates (5 mmol/L sodium pyruvate, 5 mmol/L Coenzyme A, 12 mmol/L NAD, 5 mmol/L thiamine pyrophosphate, diluted with assay buffer) were added. The mixture was incubated at room temperature for 90 min, and the residual PDH activity was measured.
The absorbance of each well at 340 nm was measured using a microplate reader to detect NADH produced by the PDH reaction. […]

`C[C@H]1Cn2nc(C34CC(C#N)(C3)C4)cc2-c2cnnc([C@@](C)(O)C(F)(F)F)c21` (racemic) [Example 104, 3-[(R)-5-methyl-4-((R)-1,1,1-trifluoro-2-hydroxypropan-2-yl)-5,6-dihydropyrazolo[1′,5′:1,2]pyrido[3,4-d]pyridazin-9-yl]bicyclo[1.1.1]pentane-1-carbonitrile and 3-[(S)-5-methyl-4-((S)-1,1,1-trifluoro-2-hydroxypropan-2-yl)-5,6-dihydropyrazolo[1′,5′:1,2]pyrido[3,4-d]pyridazin-9-yl]bicyclo[1.1.1]pentane-1-carbonitrile] and `C[C@H]1Cn2nc(C3(F)CC3)cc2-c2cnnc([C@@](C)(O)C(F)(F)F)c21` (racemic) [Example 101, (R)-1,1,1-trifluoro-2-[(R)-9-(1-fluorocyclopropyl)-5-methyl-5,6-dihydropyrazolo[1′,5′:1,2]pyrido[3,4-d]pyridazin-4-yl]propan-2-ol and (S)-1,1,1-trifluoro-2-[(S)-9-(1-fluorocyclopropyl)-5-methyl-5,6-dihydropyrazolo[1′,5′:1,2]pyrido[3,4-d]pyridazin-4-yl]propan-2-ol] are within 1.5-fold of each other in IC50: 36.9 nM for the first, 29.2 nM for the second.

First: C[C@H]1Cn2nc(C34CCC(CO)(CC3)CC4)cc2-c2cnc([C@@](C)(O)C(F)(F)F)n21 [Example 69]
Second: C[C@H]1Cn2nc(C34CCC(CO)(CC3)C4)cc2-c2cnc([C@@](C)(O)C(F)(F)F)n21 [Example 87]
The IC50 of the first is 1.6-fold higher: 18 nM for the first, 11 nM for the second. The second is the more potent here.

`C[C@H]1Cn2nc(OCF)cc2-c2onc([C@@](C)(O)C(F)(F)F)c21` (racemic) [Example 44] and `C[C@H]1Cn2nc(OCC#N)cc2-c2onc([C@@](C)(O)C(F)(F)F)c21` (racemic) [Example 42] are within 1.5-fold of each other in IC50: 18.3 nM for the first, 19.2 nM for the second.

`C[C@H]1Cn2c(nnc2C23CC(C(C)(C)O)(C2)C3)-c2onc([C@@](C)(O)C(F)(F)F)c21` [Example 13] and `C[C@H]1Cn2c(nnc2C23CC(C(F)(F)F)(C2)C3)-c2onc([C@@](C)(O)C(F)(F)F)c21` [Example 9] are within 1.5-fold of each other in IC50: 7.5 nM for the first, 9.5 nM for the second.

First: C[C@H]1Cn2nc(N3CCOCC3)cc2-c2cnc([C@@](C)(O)C(F)(F)F)n21 [Example 74]
Second: C[C@H]1Cn2nc(N3C[C@H]4C[C@@H]3CO4)cc2-c2cnc([C@@](C)(O)C(F)(F)F)n21 [Example 82]
The IC50 of the first is 1.8-fold lower: 18.4 nM for the first, 34 nM for the second. The first is the more potent here.

`C[C@H]1Cc2c(cnn2C)-c2onc([C@@](C)(O)C(F)(F)F)c21` (racemic) [Example 24] and `C[C@H]1Cc2c(cnn2C(F)F)-c2onc([C@@](C)(O)C(F)(F)F)c21` (racemic) [Example 21] are within 1.5-fold of each other in IC50: 25.4 nM for the first, 19.8 nM for the second.

Compared with `C[C@H]1Cn2c(-c3ccc(F)cc3)nnc2-c2onc([C@@](C)(O)C(F)(F)F)c21` [Example 7], `C[C@H]1Cn2c(nnc2C(F)F)-c2onc([C@@](C)(O)C(F)(F)F)c21` [Example 25] is 1.7-fold higher in IC50: 9.2 nM for the first, 15.7 nM for the second.

Going from `C[C@H]1Cc2c(cnn2C2CC(C#N)C2)-c2onc([C@@](C)(O)C(F)(F)F)c21` (stereo in doubt) [Example 29] to `C[C@H]1Cc2c(cnn2C2CC2)-c2onc([C@@](C)(O)C(F)(F)F)c21` (racemic) [Example 18], the IC50 falls from 23.6 nM to 12.5 nM (1.9-fold). The second is the more potent here.

Compared with `C[C@H]1Cc2c(cnn2CCC(C)(C)O)-c2onc([C@@](C)(O)C(F)(F)F)c21` [Example 40], `C[C@H]1Cn2nc(OCCC(C)(C)O)cc2-c2onc([C@@](C)(O)C(F)(F)F)c21` (racemic) [Example 34] is 2.5-fold higher in IC50: 5.8 nM for the first, 14.7 nM for the second.

Going from `C[C@H]1Cc2nn([C@H]3C[C@@](C)(C#N)C3)cc2-c2onc([C@@](C)(O)C(F)(F)F)c21` (racemic) [Example 58, (1R,3s)-1-methyl-3-((S)-4-methyl-3-((R)-1,1,1-trifluoro-2-hydroxypropan-2-yl)-4,5-dihydro-7H-isoxazolo[5,4-e]indazol-7-yl)cyclobutane-1-carbonitrile and enantiomer thereof] to `C[C@H]1Cc2nn([C@H]3C[C@](C)(C#N)C3)cc2-c2onc([C@@](C)(O)C(F)(F)F)c21` (racemic) [Example 54, (1S,3r)-1-methyl-3-((S)-4-methyl-3-((R)-1,1,1-trifluoro-2-hydroxypropan-2-yl)-4,5-dihydro-7H-isoxazolo[5,4-e]indazol-7-yl)cyclobutane-1-carbonitrile and enantiomer thereof], the IC50 falls from 20.4 nM to 7.2 nM (2.8-fold).

Going from `C[C@H]1Cc2nn(C3CC(C#N)C3)cc2-c2onc([C@@](C)(O)C(F)(F)F)c21` (stereo in doubt) [Example 27] to `C[C@H]1Cc2nn(C3CC3)cc2-c2onc([C@@](C)(O)C(F)(F)F)c21` [Example 19], the IC50 falls from 31.5 nM to 13.8 nM (2.3-fold).

`C[C@H]1Cn2nc(O[C@H]3CC[C@](C)(O)CC3)cc2-c2onc([C@@](C)(O)C(F)(F)F)c21` (racemic) [Example 37] and `C[C@H]1Cn2nc(C3CCOCC3)cc2-c2onc([C@@](C)(O)C(F)(F)F)c21` (racemic) [Example 52] are within 1.5-fold of each other in IC50: 17.2 nM for the first, 15 nM for the second.

Compared with `C[C@H]1Cn2nc(C34CCC(CO)(C3)C4)cc2-c2cnc([C@@](C)(O)C(F)(F)F)n21` [Example 92], `C[C@H]1Cn2nc(C34CCC(CO)(CC3)OC4)cc2-c2cnc([C@@](C)(O)C(F)(F)F)n21` [Example 85] is 1.9-fold lower in IC50: 31.9 nM for the first, 16.6 nM for the second.

Compared with `C[C@H]1Cn2nc(OCC34CC(C#N)(C3)C4)cc2-c2cnc([C@@](C)(O)C(F)(F)F)n21` [Example 97, 3-((((S)-5-methyl-3-((R)-1,1,1-trifluoro-2-hydroxypropan-2-yl)-5,6-dihydroimidazo[1,5-a]pyrazolo[5,1-c]pyrazin-9-yl)oxy)methyl)bicyclo[1.1.1]pentane-1-carbonitrile], `C[C@H]1Cn2nc(OCC34CCC(C#N)(CC3)C4)cc2-c2cnc([C@@](C)(O)C(F)(F)F)n21` [Example 90] is 3.5-fold higher in IC50: 8.8 nM for the first, 30.5 nM for the second. The first is the more potent here.

`COCCOc1cc2n(n1)C[C@H](C)n1c-2cnc1[C@@](C)(O)C(F)(F)F` [Example 68] and `C[C@H]1Cn2nc(OCCF)cc2-c2cnc([C@@](C)(O)C(F)(F)F)n21` [Example 66] are within 1.5-fold of each other in IC50: 15.2 nM for the first, 13.7 nM for the second.

Compared with `C[C@H]1Cc2c(cnn2C23CC(C#N)(C2)C3)-c2onc([C@@](C)(O)C(F)(F)F)c21` (racemic) [Example 51], `C[C@H]1Cc2nn(C(F)F)cc2-c2onc([C@@](C)(O)C(F)(F)F)c21` (racemic) [Example 22] is 1.6-fold higher in IC50: 13.7 nM for the first, 22.4 nM for the second. The first is the more potent here.

`C[C@H]1Cn2c(nnc2C2(F)CC2)-c2onc([C@@](C)(O)C(F)(F)F)c21` [Example 8] and `C[C@H]1Cn2c(nnc2C2CC2)-c2onc([C@@](C)(O)C(F)(F)F)c21` [Example 5] are within 1.5-fold of each other in IC50: 11.7 nM for the first, 10.6 nM for the second.

Compared with `COCCOc1cc2n(n1)C[C@@H](C)c1c([C@](C)(O)C(F)(F)F)noc1-2` [Example 43], `C[C@H]1Cn2nccc2-c2onc([C@@](C)(O)C(F)(F)F)c21` [Example 60, (R)-1,1,1-trifluoro-2-((R)-4-methyl-4,5-dihydroisoxazolo[5,4-c]pyrazolo[1,5-a]pyridin-3-yl)propan-2-ol] is 4.2-fold lower in IC50: 28.2 nM for the first, 6.7 nM for the second. The second is the more potent here.

Going from `C[C@H]1Cn2nc(N3C[C@@H]4C[C@H]3CO4)cc2-c2cnc([C@@](C)(O)C(F)(F)F)n21` [Example 81] to `C[C@H]1Cn2nc(N3CC4C(C3)C4(F)F)cc2-c2cnc([C@@](C)(O)C(F)(F)F)n21` (stereo partly drawn) [Example 78], the IC50 falls from 29.8 nM to 15.1 nM (2-fold).

In the case of `C[C@H]1Cn2nc(OCC34CCC(C#N)(CC3)CC4)cc2-c2cnc([C@@](C)(O)C(F)(F)F)n21` [Example 89], the IC50 is reported as 37.7 nM.

Reference: patent US20240417406A1, “NITROGEN-CONTAINING TRICYCLIC COMPOUND AND PHARMACEUTICAL USE THEREOF” (JAPAN TOBACCO INC., priority 2021, published 2024)
